This experiment deals with T1, catalytic domain of human Bub1 (amino acids 704-1085) (Homo sapiens, UniProt O43683).
T1 construct: catalytic domain of human Bub1 (amino acids 704-1085); His6 (N); made in house; host or cells: Hi5 insect cells
Briefly: Bub1 kinase assay (TR-FRET). The format is biochemical. Particulars: TR-FRET; ATP 10 μM, peptide substrate 1 μM; 60 min at 22° C.; average or median if tested more than once; read-out: Inhibition of Bub1 kinase IC50. An outline of the steps:
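Eleven concentrations (0.1 nM–20 μM, duplicate) fitted by 4-parameter logistic for IC50. Read-out: EDTA-stopped TR-FRET (665/620 nm) detecting anti-phosphoserine binding to biotin-peptide (1 μM). Reaction used 10 μM ATP, 60 min at 22 °C, after 15 min compound preincubation with His-tagged human Bub1 704-1085.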
(In general: TR-FRET usually uses a lanthanide donor and a delayed reading to cut background.)

Results on 29 compounds are retold here after patent US20200216439A1, “HETERO-1,5,6,7-TETRAHYDRO-4H-INDOL-4-ONES” (BAYER PHARMA AKTIENGESELLSCHAFT, priority 2015, published 2020).

T1 sequence (O43683 704-1085): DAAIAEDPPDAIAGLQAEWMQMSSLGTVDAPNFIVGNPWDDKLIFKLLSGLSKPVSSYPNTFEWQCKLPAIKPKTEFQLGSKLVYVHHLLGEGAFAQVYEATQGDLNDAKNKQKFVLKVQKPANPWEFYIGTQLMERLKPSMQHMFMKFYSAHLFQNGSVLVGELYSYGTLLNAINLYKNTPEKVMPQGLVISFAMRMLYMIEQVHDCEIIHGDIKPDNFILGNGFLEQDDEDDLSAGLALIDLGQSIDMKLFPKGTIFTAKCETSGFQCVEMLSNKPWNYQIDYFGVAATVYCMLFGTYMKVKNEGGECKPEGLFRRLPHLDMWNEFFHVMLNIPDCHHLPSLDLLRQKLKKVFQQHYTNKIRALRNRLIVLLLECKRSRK

Regarding `O=C1CN(S(=O)(=O)CCO)Cc2[nH]c(-c3ccncc3)c(Nc3ccccc3)c21` [Example 123, 3-Anilino-6-[(2-hydroxyethyl)sulfonyl]-2-(pyridin-4-yl)-1,5,6,7-tetrahydro-4H-pyrrolo[2,3-c]pyridin-4-one], the IC50 (commonly the concentration needed to halve the response being measured) worked out at 3 nM. Then `COc1cnccc1-c1[nH]c2c(c1Nc1ccccc1)C(=O)COC2` [Example 43, 2-(3-Methoxypyridin-4-yl)-3-(phenylamino)-1,7-dihydropyrano[3,4-b]pyrrol-4(5H)-one], with 84 nM; and `O=C1CSCc2[nH]c(-c3ccncc3Cl)c(Nc3ccccc3)c21` [Example 38, 2-(3-Chloropyridin-4-yl)-3-(phenylamino)-1,7-dihydrothiopyrano[3,4-b]pyrrol-4(5H)-one], with 40 nM; and `COCCOc1cnccc1-c1[nH]c2c(c1Nc1ccccc1)C(=O)CN(S(=O)(=O)N(C)C)C2` [Example 280, 2-[3-(2-Methoxyethoxy)pyridin-4-yl]-N,N-dimethyl-4-oxo-3-(phenylamino)-1,4,5,7-tetrahydro-6H-pyrrolo[2,3-c]pyridine-6-sulfonamide], with 6 nM. The result for `COc1ccc(C(=O)Nc2cc(-c3[nH]c4c(c3Nc3ccccc3)C(=O)CN(C(=O)OC(C)(C)C)C4)ccn2)cc1F` [Example 283, tert-Butyl 2-2-[(3-fluoro-4-methoxybenzoyl)amino]pyridin-4-yl-4-oxo-3-(phenylamino)-1,4,5,7-tetrahydro-6H-pyrrolo[2,3-c]pyridine-6-carboxylate] reads 38 nM. The result for `CC(C)(C)OC(=O)N1CC(=O)c2c([nH]c(-c3ccncc3OCC(F)(F)F)c2Nc2ccccc2)C1` [Example 221, tert-Butyl 3-anilino-4-oxo-2-[3-(2,2,2-trifluoroethoxy)pyridin-4-yl]-1,4,5,7-tetrahydro-6H-pyrrolo[2,3-c]pyridine-6-carboxylate] reads 104 nM; that for `COc1ccc(C(=O)Nc2cc(-c3[nH]c4c(c3Nc3ccccc3)C(=O)CN(C(=O)OC(C)(C)C)C4)ccn2)c(C)c1` [Example 266, tert-Butyl 2-2-[(4-methoxy-2-methylbenzoyl)amino]pyridin-4-yl-4-oxo-3-(phenylamino)-1,4,5,7-tetrahydro-6H-pyrrolo[2,3-c]pyridine-6-carboxylate], 72 nM.

Consider `COC(=O)Nc1cc(-c2[nH]c3c(c2Nc2ccccc2)C(=O)COC3)ccn1` [Example 53, Methyl {4-[4-oxo-3-(phenylamino)-1,4,5,7-tetrahydropyrano[3,4-b]pyrrol-2-yl]pyridin-2-yl}carbamate], for which the IC50 amounted to 82 nM. Consider `CC(=O)Nc1cc(-c2[nH]c3c(c2Nc2ccc(C)cc2)C(=O)CN(C(C)=O)C3)ccn1` [Example 319, N-(4-(6-Acetyl-3-[(4-methylphenyl)amino]-4-oxo-4,5,6,7-tetrahydro-1H-pyrrolo[2,3-c]pyridin-2-yl)pyridin-2-yl)acetamide], for which the 50% inhibitory concentration (IC50) was determined as 192 nM. Then `CS(=O)(=O)N1CC(=O)c2c([nH]c(-c3ccncc3OCC(F)F)c2Nc2ccccc2)C1` [Example 232, 3-Anilino-2-[3-(2,2-difluoroethoxy)pyridin-4-yl]-6-(methylsulfonyl)-1,5,6,7-tetrahydro-4H-pyrrolo[2,3-c]pyridin-4-one], with 12 nM; and `CCNC(=O)N1CC(=O)c2c([nH]c(-c3ccnc(C)n3)c2Nc2ccccc2)C1` [Example 25, N-Ethyl-2-(2-methylpyrimidin-4-yl)-4-oxo-3-(phenylamino)-1,4,5,7-tetrahydro-6H-pyrrolo[2,3-c]pyridine-6-carboxamide], with 254 nM. On to `CC(C)(C)OC(=O)N1CC(=O)c2c([nH]c(-c3ccnc(NC(=O)C4CC4(F)F)c3)c2Nc2ccccc2)C1` (racemic) [Example 121, tert-Butyl 2-[2-({[(1RS)-2,2-difluorocyclopropyl]carbonyl}amino)pyridin-4-yl]-4-oxo-3-(phenylamino)-1,4,5,7-tetrahydro-6H-pyrrolo[2,3-c]pyridine-6-carboxylate], for which the IC50 worked out at 10 nM. On to `O=C1CNCc2[nH]c(-c3ccncc3OCC3CC3)c(Nc3ccccc3)c21` [Example 227, 3-anilino-2-[3-(cyclopropylmethoxy)pyridin-4-yl]-1,5,6,7-tetrahydro-4H-pyrrolo[2,3-c]pyridin-4-one], for which the IC50 is 140 nM. Consider `CC(=O)N1CC(=O)c2c([nH]c(-c3ccnc(C)n3)c2Nc2ccccc2)C1` [Example 26, 6-Acetyl-2-(2-methylpyrimidin-4-yl)-3-(phenylamino)-1,5,6,7-tetrahydro-4H-pyrrolo[2,3-c]pyridin-4-one], for which the IC50 was 97 nM. Then `O=C1CNCc2[nH]c(-c3ccnc(NC(=O)[C@@H]4C[C@@H]4F)c3)c(Nc3ccccc3)c21` (relative stereo) [Example 136, rel-(1S,2S)—N-[4-(3-Anilino-4-oxo-4,5,6,7-tetrahydro-1H-pyrrolo[2,3-c]pyridin-2-yl)pyridin-2-yl]-2-fluorocyclopropanecarboxamide], with 81 nM; and `CC(C)OC(=O)N1CC(=O)c2c([nH]c(-c3ccnc(NC(=O)[C@H]4C[C@H]4F)c3)c2Nc2ccccc2)C1` (relative stereo) [Example 157, Isopropyl 3-anilino-2-[2-({[rel-(1R,2R)-2-fluorocyclopropyl]carbonyl}amino)pyridin-4-yl]-4-oxo-1,4,5,7-tetrahydro-6H-pyrrolo[2,3-c]pyridine-6-carboxylate], with 7 nM; and `O=C1COCc2[nH]c(-c3ccncc3Cl)c(Nc3ccccc3)c21` [Example 42, 2-(3-Chloropyridin-4-yl)-3-(phenylamino)-1,7-dihydropyrano[3,4-b]pyrrol-4(5H)-one], with 77 nM.

On to `COc1ccc(C(=O)Nc2cc(-c3c(Nc4ccccc4)c4c(n3C)CN(S(=O)(=O)N(C)C)CC4=O)ccn2)cc1F` [Example 290, N-4-[6-(Dimethylsulfamoyl)-1-methyl-4-oxo-3-(phenylamino)-4,5,6,7-tetrahydro-1H-pyrrolo[2,3-c]pyridin-2-yl]pyridin-2-yl-3-fluoro-4-methoxybenzamide], for which the IC50 worked out at 73 nM.

With `CC(=O)Nc1cc(-c2[nH]c3c(c2Nc2ccccc2)C(=O)CN(S(=O)(=O)CCC(F)(F)F)C3)ccn1` [Example 182, N-(4-{3-Anilino-4-oxo-6-[(3,3,3-trifluoropropyl)sulfonyl]-4,5,6,7-tetrahydro-1H-pyrrolo[2,3-c]pyridin-2-yl}pyridin-2-yl)acetamide], the IC50 was determined as 4 nM. The result for `O=C(Nc1cc(-c2[nH]c3c(c2Nc2ccccc2)C(=O)COC3)ccn1)c1ccc(F)c(F)c1` [Example 154, N-[4-(3-Anilino-4-oxo-1,4,5,7-tetrahydropyrano[3,4-b]pyrrol-2-yl)pyridin-2-yl]-3,4-difluorobenzamide] reads 19 nM; that for `CC(C)OC(=O)N1CC(=O)c2c([nH]c(-c3ccncc3)c2Nc2ccccc2)C1` [Example 77, Propan-2-yl 4-oxo-3-(phenylamino)-2-(pyridin-4-yl)-1,4,5,7-tetrahydro-6H-pyrrolo[2,3-c]pyridine-6-carboxylate], 11 nM; that for `CS(=O)(=O)N1CC(=O)c2c([nH]c(-c3ccnc(NC(=O)[C@H]4C[C@H]4F)c3)c2Nc2ccccc2)C1` (relative stereo) [Example 148, rel-(1R,2R)—N-{4-[3-Anilino-6-(methylsulfonyl)-4-oxo-4,5,6,7-tetrahydro-1H-pyrrolo[2,3-c]pyridin-2-yl]pyridin-2-yl}-2-fluorocyclopropanecarboxamide], 4 nM. For `Cc1nccc(-c2[nH]c3c(c2Nc2ccccc2)C(=O)CN(C(=O)OC(C)(C)C)C3)n1` [Example 12, tert-Butyl 2-(2-methylpyrimidin-4-yl)-4-oxo-3-(phenylamino)-1,4,5,7-tetrahydro-6H-pyrrolo[2,3-c]pyridine-6-carboxylate], the IC50 turned out to be 102 nM.

`CCCN(C)C(=O)N1CC(=O)c2c([nH]c(-c3ccnc(NC(C)=O)c3)c2Nc2ccccc2)C1` [Example 187, 2-(2-Acetamidopyridin-4-yl)-3-anilino-N-methyl-4-oxo-N-propyl-1,4,5,7-tetrahydro-6H-pyrrolo[2,3-c]pyridine-6-carboxamide]: the IC50 was 3 nM. For the compound `CCC(=O)N1CC(=O)c2c([nH]c(-c3ccncc3)c2Nc2ccccc2)C1` [Example 8, 3-(phenylamino)-6-propanoyl-2-(pyridin-4-yl)-1,5,6,7-tetrahydro-4H-pyrrolo[2,3-c]pyridin-4-one], the IC50 came to 4 nM. The result for `Cc1nccc(-c2[nH]c3c(c2Nc2ccccc2)C(=O)COC3)n1` [Example 15, 2-(2-Methylpyrimidin-4-yl)-3-(phenylamino)-1,7-dihydropyrano[3,4-b]pyrrol-4(5H)-one] reads 1200 nM; that for `O=C1CN(S(=O)(=O)c2cnc[nH]2)Cc2[nH]c(-c3ccncc3)c(Nc3ccccc3)c21` [Example 72, 6-(1H-Imidazol-5-ylsulfonyl)-3-(phenylamino)-2-(pyridin-4-yl)-1,5,6,7-tetrahydro-4H-pyrrolo[2,3-c]pyridin-4-one], 7 nM. Then `COc1cc(C(=O)Nc2cc(-c3[nH]c4c(c3Nc3ccccc3)C(=O)CN(C(=O)N3C[C@@H](C)O[C@@H](C)C3)C4)ccn2)ccc1F` [Example 261, N-4-[6-[(2R,6S)-2,6-Dimethylmorpholin-4-yl]carbonyl-4-oxo-3-(phenylamino)-4,5,6,7-tetrahydro-1H-pyrrolo[2,3-c]pyridin-2-yl]pyridin-2-yl-4-fluoro-3-methoxybenzamide], with 351 nM. `CC(=O)Nc1cc(-c2[nH]c3c(c2Nc2ccccc2)C(=O)CN(C(=O)C2CCN(C)CC2)C3)ccn1` [Example 191, N-(4-{3-Anilino-6-[(1-methylpiperidin-4-yl)carbonyl]-4-oxo-4,5,6,7-tetrahydro-1H-pyrrolo[2,3-c]pyridin-2-yl}pyridin-2-yl)acetamide]: the IC50 was 143 nM.
